For the compound `CCN1CCC[C@H]1CNC(=O)c1cc(I)cc(OC)c1OC`, the logP came out at 2.73.

With `Oc1ccccc1OC(c1ccccc1)C1CNCCO1` (stereo not given), the logP came out at 1.92.

As for `CN1Cc2c(C(=O)OCCF)ncn2-c2ccc(F)cc2C1=O`, the lipophilicity (logP) amounted to 0.93.

Take `Cn1c2c(c3ccccc31)C[C@@]1(O)[C@@H]3Cc4ccc(O)c5c4[C@@]1(CCN3CC1CC1)[C@H]2O5`: the logP worked out at 4.28.

Take `CCC(C)NC(=O)c1cc2ccccc2c(-c2ccccc2Cl)n1` (stereo not given): the logP turned out to be 3.25.

In turn, `CCN1CCCC1CNC(=O)c1cc(Br)cc(OC)c1OC` (stereo in doubt) had a logP of 2.37.

With `COC(=O)C1C(c2ccc(I)cc2)CC2CCC1N2C` (stereo not given), the logP is 2.13.

`CCCn1c(=O)c2[nH]c(C3CCCC3)nc2n(CCCF)c1=O` gave a logP of 2.83.

In turn, `CNCC(O)CCN1c2ccccc2N(c2ccccc2)S1(=O)=O` (stereo not given) gave a logP of 2.55.

Compound `COc1cc2c(cc1OC)CN(CCc1ccc(NC(=O)c3cccc4c(=O)c5cccc(OC)c5[nH]c34)cc1)CC2` yielded a logP of 4.82.

The term logP denotes a log measure of how a compound divides between an organic and an aqueous phase. Read a low logP as lower lipophilicity.

Source of the values: the SangsterLogP compilation.
